Results taken from patent US20070025974A1, “Amylases producing an altered immunogenic response and methods of making and using the same” (priority 2003, published 2007).

Tested on: human CD4+ T-cells
Experiment: I-MUNE assay: T-cell proliferation (tritiated thymidine) with dendritic cells and CD4+ T-cells
Format: cell-based
Details: approximately 5 Lf/mL

## tetanus toxoid
  positive control proliferative response: robust positive control responses
